This note sets out measurements from patent US4218442A, “1-Epi-fortimicin A and derivatives” (Abbott Laboratories, priority 1979, dated 1980).

Counter-ions that a name gives are not always drawn. Like-named read-outs stand apart in the source and are kept apart here.

Holding throughout (assay): MIC, two-fold agar dilution, Mueller-Hinton agar
Common to all, as to format: cell-based
Background: Agar dilution tests growth on a series of plates holding different concentrations.

The test system of experiment [1] is Enterobacter aerogenes 13048. The following applies: read-out: minimum inhibitory concentration (MIC). The protocol:
(§1) The in vitro antibiotic activity is determined by a two-fold dilution test using Mueller-Hinton agar, 10 ml per Petri plate. The inoculum of approximately 1×10^5 of the indicated test organism is delivered by the Steer's replicator. The test is incubated at 37° C. for 24 hours.

Another experiment relates to Escherichia coli 76-2. The following applies: read-out: minimum inhibitory concentration (MIC). As to the method: as §1
The subject of experiment [2] is Escherichia coli BL 3676(RES). The following applies: read-out: minimum inhibitory concentration (MIC). As to the method: as §1
The test system of another experiment is Escherichia coli JUHL. The following applies: read-out: minimum inhibitory concentration (MIC). As to the method: as §1
In experiment [3] the test system is Klebsiella pneumoniae 10031. The following applies: read-out: minimum inhibitory concentration (MIC). The protocol: as §1
The test system of experiment [4] is Klebsiella pneumoniae KY 4262. The settings on record: read-out: minimum inhibitory concentration (MIC). As to the method: as §1
In a further experiment the test system is Proteus mirabilis Fin #9. The following applies: read-out: minimum inhibitory concentration (MIC). The protocol: as §1
For a further experiment, the system named is Proteus rettgeri U-6333. The following applies: Providencia rettgeri, read-out: minimum inhibitory concentration (MIC). The protocol: as §1
For another experiment, the system named is Proteus vulgaris JJ. The following applies: read-out: minimum inhibitory concentration (MIC). As to the method:
as §1

Experiment [5] concerns Providencia stuartii 1577. The settings on record: read-out: minimum inhibitory concentration (MIC). As to the method: as §1
For experiment [6], the system named is Pseudomonas aeruginosa 209. The settings on record: read-out: minimum inhibitory concentration (MIC). The protocol: as §1
Experiment [7] has as its system Pseudomonas aeruginosa 27853. The following applies: read-out: minimum inhibitory concentration (MIC). The protocol:
as §1

Experiment [8] has as its system Pseudomonas aeruginosa BMH #10. The following applies: read-out: minimum inhibitory concentration (MIC). The protocol: as §1
Experiment [9] deals with Pseudomonas aeruginosa KY 8512. The following applies: read-out: minimum inhibitory concentration (MIC). The protocol:
as §1

In experiment [10] the test system is Pseudomonas aeruginosa KY 8516. The following applies: read-out: minimum inhibitory concentration (MIC). The protocol:
as §1

The subject of experiment [11] is Salmonella typhimurium Ed. #9. The settings on record: Salmonella enterica, read-out: minimum inhibitory concentration (MIC). The protocol: as §1
The next experiment relates to Serratia marcescens 4003. The following applies: read-out: minimum inhibitory concentration (MIC). As to the method: as §1
A further experiment deals with Shigella sonnei 9290. The following applies: 37° C., 24 hours, read-out: minimum inhibitory concentration (MIC). The protocol:
as §1

Experiment [12] deals with Staphylococcus aureus Smith. The following applies: read-out: minimum inhibitory concentration (MIC). The protocol:
as §1

Experiment [13] concerns Streptococcus faecalis 10541. The following applies: read-out: minimum inhibitory concentration (MIC). As to the method: as §1

As to `CO[C@H]1[C@@H](O)[C@@H](N)[C@@H](O[C@H]2O[C@H]([C@H](C)N)CC[C@H]2N)[C@H](O)[C@@H]1N(C)C(=O)CN` [Ex. 3, 1-Epi-fortimicin A tetrahydrochloride], the MIC was 6.2 µg/mL in experiment [1] (Klebsiella aerogenes, 13048, 24 h); 6.2 µg/mL with Escherichia coli 76-2 (Escherichia coli, 762, 24 h); 50 µg/mL in experiment [2] (Escherichia coli, 24 h); 12.5 µg/mL in the experiment on Escherichia coli JUHL (Escherichia coli, 24 h); 3.1 µg/mL in experiment [3] (Klebsiella pneumoniae, 10031, 24 h); 6.2 µg/mL in experiment [4] (Klebsiella pneumoniae, KY4262, 24 h). The MIC in the experiment on Proteus mirabilis Fin #9 (Proteus mirabilis, 24 h) came out at 12.5 µg/mL; in the experiment with Proteus rettgeri U-6333 (U6333, 24 h) it was 3.1 µg/mL; in the experiment with Proteus vulgaris JJ (Proteus vulgaris, 24 h) it was 12.5 µg/mL; in experiment [5] (Providencia stuartii, 1577, 24 h) it was 3.1 µg/mL; in experiment [6] (Pseudomonas aeruginosa, 209, 24 h), 100 µg/mL; in [7] (Pseudomonas aeruginosa, 27853, 24 h) it was 50 µg/mL. Further, the MIC turned out to be 0.78 µg/mL in experiment [8] (Pseudomonas aeruginosa, 24 h); 25 µg/mL in experiment [9] (Pseudomonas aeruginosa, KY8512, 24 h); 100 µg/mL in experiment [10] (Pseudomonas aeruginosa, KY8516, 24 h); 3.1 µg/mL in experiment [11] (TYPHIMURIUM, 24 h); 3.1 µg/mL with Serratia marcescens 4003 (Serratia marcescens, 4003, 24 h); 12.5 µg/mL with Shigella sonnei 9290. Further, the MIC in experiment [12] (Staphylococcus aureus, 24 h) worked out at 1.56 µg/mL; in experiment [13] (Enterococcus faecalis, 10541, 24 h), 100 µg/mL.
As to `C[C@H](N)[C@@H]1CC[C@@H](N)[C@@H](O[C@@H]2[C@H](N)[C@H](O)[C@H](O)[C@@H](N(C)C(=O)CN)[C@H]2O)O1` [Ex. 13, 1-Epi-3-O-demethylfortimicin A tetrahydrochloride], the MIC is 3.1 µg/mL in experiment [1] (Klebsiella aerogenes, Enterobacter aerogenes 13048, 37° C., 24 hours); 3.1 µg/mL in the experiment on Escherichia coli 76-2 (762, Escherichia coli 76-2, 37° C., 24 hours); 25 µg/mL in experiment [2] (Escherichia coli BL 3676(RES), 37° C., 24 hours); 6.2 µg/mL in the experiment on Escherichia coli JUHL (Escherichia coli JUHL, 37° C., 24 hours); 3.1 µg/mL in [3] (Klebsiella pneumoniae 10031, 37° C., 24 hours); 6.2 µg/mL in [4] (KY4262, Klebsiella pneumoniae KY 4262, 37° C., 24 hours). The MIC in the experiment with Proteus mirabilis Fin #9 (Proteus mirabilis Fin #9, 37° C., 24 hours) is 6.2 µg/mL; in the experiment with Proteus rettgeri U-6333 (U6333, Proteus rettgeri U-6333, 37° C., 24 hours), 3.1 µg/mL; with Proteus vulgaris JJ (Proteus vulgaris JJ, 37° C., 24 hours) it was 3.1 µg/mL; in experiment [5] (Providencia stuartii 1577, 37° C., 24 hours), 6.2 µg/mL; in [6] (Pseudomonas aeruginosa 209, 37° C., 24 hours), 100 µg/mL; in [7] (Pseudomonas aeruginosa 27853, 37° C., 24 hours) it was 6.2 µg/mL. For the same compound, the MIC is 0.78 µg/mL in [8] (Pseudomonas aeruginosa BMH #10, 37° C., 24 hours); 6.2 µg/mL in [9] (KY8512, Pseudomonas aeruginosa KY 8512, 37° C., 24 hours); 25 µg/mL in experiment [10] (KY8516, Pseudomonas aeruginosa KY 8516, 37° C., 24 hours); 3.1 µg/mL in experiment [11] (Salmonella typhimurium Ed. #9, 37° C., 24 hours); 3.1 µg/mL in the experiment with Serratia marcescens 4003 (Serratia marcescens 4003, 37° C., 24 hours); 12.5 µg/mL in the experiment on Shigella sonnei 9290. Also, the MIC turned out to be 0.78 µg/mL in experiment [12] (Staphylococcus aureus Smith, 37° C., 24 hours) and 50 µg/mL in [13] (Enterococcus faecalis, Streptococcus faecalis 10541, 37° C., 24 hours).
